# Experimental data taken from patent US8765805B2, “Ligand activators of the RAR receptors and pharmaceutical/cosmetic applications thereof” (Galderma Research & Development, priority 2003, dated 2014).
# pKd: −log10 of the molar value.
# Tests used:
# Type in all cases: cell-based
# RAR beta = biological target: T1, RAR beta (Homo sapiens, UniProt P10826); experiment: Transactivation test, HeLa reporter cells (luciferase), RAR beta; conditions: HeLa stable transfectants; for AC50: concentration that gives 50% of the activity; for pKd: Schild regression vs reference antagonist, read-out: Kdapp
# T1 sequence (P10826 183-417 limits assumed): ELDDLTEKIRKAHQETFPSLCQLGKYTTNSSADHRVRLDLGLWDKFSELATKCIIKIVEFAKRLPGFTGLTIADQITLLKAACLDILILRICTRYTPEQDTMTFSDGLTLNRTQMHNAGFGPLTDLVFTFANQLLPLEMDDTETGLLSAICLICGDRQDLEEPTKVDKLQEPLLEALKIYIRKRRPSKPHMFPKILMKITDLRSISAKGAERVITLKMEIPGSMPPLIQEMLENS
# Experimental: (§1) The activation of receptors with an agonist (activator) in HeLa cells leads to the expression of a reporter gene, luciferase, which, in the presence of a substrate, generates light. The activation of the receptors may thus be measured by quantifying the luminescence produced after incubating the cells in the presence of a reference antagonist. The activating products displace the antagonist from its site, thus allowing activation of the receptor. The activity is measured by quantifying the increase in light produced. This measurement makes it possible to determine the activating activity of the compounds according to the invention.
# (§2) Determination of the Kdapp:
# (§3) In this study, a constant is determined which is the affinity of the molecule for the receptor. Since this value can fluctuate depending on the basal activity and the expression of the receptor, it is referred to as the Kdapparent (KdApp).
# (§4) To determine this constant, the cells are brought into contact with a concentration of the test product and a concentration of the reference antagonist, 4-(5,5-dimethyl-8-p-tolyl-5,6-dihydronaphth-2-ylethynyl)benzoic acid. Measurements are also taken for the total agonist (4-[2-(5,5,8,8-tetramethyl-5,6,7,8-tetrahydronaphth-2-yl)propenyl]benzoic acid) and inverse agonist, 4-{(E)-3-[4-(4-tert-butylphenyl)-5,5,8,8-tetramethyl-5,6,7,8-tetrahydro-2-naphthyl]-3-oxopropenyl}benzoic acid, controls.
# (§5) These crossed curves make it possible to determine the AC50 values (concentration at which 50% activation is observed) for the reference ligand at various concentrations of test product. These AC50 values are used to calculate the Schild regression by plotting a straight line corresponding to the Schild equation (“quantitation in receptor pharmacology” Terry P. Kenakin, Receptors and Channels, 2001, 7, 371-385).
# (§6) In the case of an agonist, an AC50 value (concentration that gives 50% of the activity) is calculated by plotting the curve of the product at the concentration of the reference ligand that gives 80% activation.
# (§7) The HeLa cell lines used are stable transfectants containing the plasmids ERE-βGlob-Luc-SV-Neo (reporter gene) and RAR (α, β, γ) ER-DBD-puro. These cells are inoculated into 96-well plates at a rate of 10,000 cells per well in 100 μl of DMEM medium without phenol red, and supplemented with 10% defatted calf serum. The plates are then incubated at 37° C. and 7% CO2 for 4 hours.
# (§8) The various dilutions of the test products, of the reference ligand (4-(5,5-dimethyl-8-p-tolyl-5,6-dihydronaphth-2-yl)ethynyl)benzoic acid, of the 100% control (100 nM 4-[2-(5,5,8,8-tetramethyl-5,6,7,8-tetrahydro-2-naphthyl)propenyl]benzoic acid) and of the 0% control (500 nM 4-{(E)-3-[4-(4-tert-butylphenyl)-5,5,8,8-tetramethyl-5,6,7,8-tetrahydro-2-naphthyl]-3-oxopropenyl}benzoic acid) are added at a rate of 5 μl per well. The plates are then incubated for 18 hours at 37° C. and 7% CO2.
# (§9) The culture medium is removed by turning over and 100 μl of a 1:1 PBS/luciferine mixture is added to each well. After 5 minutes, the plates are read using the luminescence detector.
# RAR alpha = biological target: T2, RAR alpha (Homo sapiens, UniProt P10276); experiment: Transactivation test, HeLa reporter cells (luciferase), RAR alpha; conditions: HeLa stable transfectants; for pKd: Schild regression vs reference antagonist, read-out: Kdapp; for AC50: concentration that gives 50% of the activity
# T2 sequence (P10276 183-417 limits assumed): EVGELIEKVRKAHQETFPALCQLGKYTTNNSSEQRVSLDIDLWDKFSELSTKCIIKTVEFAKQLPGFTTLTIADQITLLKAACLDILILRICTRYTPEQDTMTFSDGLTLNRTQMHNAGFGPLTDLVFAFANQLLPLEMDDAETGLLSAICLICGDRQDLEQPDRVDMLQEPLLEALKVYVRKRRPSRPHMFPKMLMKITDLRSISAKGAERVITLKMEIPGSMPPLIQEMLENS
# Experimental: as §1, §2, §3, §4, §5, §6, §7, §8, §9
# RAR gamma = biological target: T3, RAR gamma (Homo sapiens, UniProt P13631); experiment: Transactivation test, HeLa reporter cells (luciferase), RAR gamma; conditions: HeLa stable transfectants; for pKd: Schild regression vs reference antagonist, read-out: Kdapp; for AC50: concentration that gives 50% of the activity
# T3 sequence (P13631 185-419 limits assumed): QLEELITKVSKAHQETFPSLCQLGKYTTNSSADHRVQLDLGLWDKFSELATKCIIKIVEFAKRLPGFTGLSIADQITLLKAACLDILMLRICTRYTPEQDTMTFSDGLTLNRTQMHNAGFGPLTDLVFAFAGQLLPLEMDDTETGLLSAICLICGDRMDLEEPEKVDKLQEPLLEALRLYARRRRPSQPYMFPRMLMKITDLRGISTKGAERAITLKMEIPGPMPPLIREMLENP
# Experimental: as §1, §2, §3, §4, §5, §6, §7, §8, §9
Compound,AC50 (RAR beta),pKd (RAR alpha),AC50 (RAR alpha),pKd (RAR gamma),AC50 (RAR gamma),pKd (RAR beta)
"CCOCCOc1cc(C(O)C#Cc2ccc(C(=O)O)cc2)cc2c1C(C)(C)CCC2(C)C (stereo not drawn) [Ex 2, 4-{3-Hydroxy-3-[4-(2-ethoxyethoxy)-5,5,8,8-tetramethyl-5,6,7,8-tetrahydronaphth-2-yl]-prop-1-ynyl}benzoic acid]",500 nM,6.00,900 nM,7.52,50 nM,–
"COCCOc1cc(C(O)C#Cc2ccc(C(=O)O)cc2)cc2c1C(C)(C)CCC2(C)C (stereo not drawn) [Ex 1, 4-{3-Hydroxy-3-[4-(2-methoxyethoxy)-5,5,8,8-tetramethyl-5,6,7,8-tetrahydronaphth-2-yl]prop-1-ynyl}benzoic acid]",45 nM,7.22,400 nM,8.70,2 nM,7.22
"CCOCCOc1cc(C(O)C#Cc2ccc(C(=O)O)c(O)c2)cc2c1C(C)(C)CCC2(C)C (stereo not drawn) [Ex 3, 4-{3-Hydroxy-3-[4-(2-ethoxyethoxy)-5,5,8,8-tetramethyl-5,6,7,8-tetrahydronaphth-2-yl]prop-1-ynyl}-2-hydroxybenzoic acid]",100 nM,7.52,150 nM,9.00,1 nM,6.92

# Continued, values first:
AC50 (RAR beta),pKd (RAR alpha),AC50 (RAR alpha),pKd (RAR gamma),AC50 (RAR gamma),pKd (RAR beta),Compound
200 nM,6.92,800 nM,9.00,1.2 nM,–,"CCOCCOc1cc([C@H](O)C#Cc2ccc(C(=O)O)cc2)cc2c1C(C)(C)CCC2(C)C [Ex 4, 4-{3-Hydroxy-3-[4-(2-ethoxyethoxy)-5,5,8,8-tetramethyl-5,6,7,8-tetrahydronaphth-2-yl]-prop-1-ynyl}benzoic (S)-acid]"
200 nM,6.92,800 nM,9.00,1.8 nM,–,"CCOCCOc1cc([C@@H](O)C#Cc2ccc(C(=O)O)cc2)cc2c1C(C)(C)CCC2(C)C [Ex 5, 4-{3-Hydroxy-3-[4-(2-ethoxyethoxy)-5,5,8,8-tetramethyl-5,6,7,8-tetrahydronaphth-2-yl]prop-1-ynyl}benzoic (R)-acid]"
